We go through five compounds from paper PMC4811591, “Role of the Substrate Specificity-Defining Residues of Human SIRT5 in Modulating the Structural Stability and Inhibitory Features of the Enzyme” (PLoS ONE, 2016).

The term Km denotes the substrate concentration at which the rate is half of its maximum. By IC50 is commonly meant the concentration that inhibits the measured activity by half. A word on the inhibition: it is the change of the read-out against control, counted positive when it falls. High values mean a strong effect, low ones a weak effect.

Positions count from the first letter of the chain named.

In test [1] the test system is SIRT5. The arrangement: method as in PMID 22583019. Conditions: same succinylated substrate, fixed substrate concentration; read-out: Km,NAD (apparent); cited from earlier work.
For test [2], the target named is T1, SIRT1 (Homo sapiens, UniProt Q96EB6).
T1 construct: SIRT1 (193–747) and SIRT5 (51–301) were cloned into the pLIC-His expression vector; His tag (pLIC-His vector); made in house; host or cells: E. coli BL21(DE3) Star
T1 sequence (Q96EB6 193-747): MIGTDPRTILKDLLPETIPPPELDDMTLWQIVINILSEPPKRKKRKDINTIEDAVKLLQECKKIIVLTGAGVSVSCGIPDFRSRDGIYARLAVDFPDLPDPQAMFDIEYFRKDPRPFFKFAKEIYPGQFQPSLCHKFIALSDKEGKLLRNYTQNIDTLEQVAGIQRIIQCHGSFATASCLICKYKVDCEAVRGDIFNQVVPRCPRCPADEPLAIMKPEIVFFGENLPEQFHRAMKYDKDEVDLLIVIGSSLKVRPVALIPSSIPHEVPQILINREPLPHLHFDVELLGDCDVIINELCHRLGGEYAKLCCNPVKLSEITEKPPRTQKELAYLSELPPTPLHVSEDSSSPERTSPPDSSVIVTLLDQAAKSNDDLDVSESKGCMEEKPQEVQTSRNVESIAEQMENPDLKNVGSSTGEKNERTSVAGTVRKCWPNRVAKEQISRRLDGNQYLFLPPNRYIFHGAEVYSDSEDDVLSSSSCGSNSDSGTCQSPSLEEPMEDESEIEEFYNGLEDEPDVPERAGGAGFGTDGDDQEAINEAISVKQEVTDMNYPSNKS
Description: SIRT1 desuccinylation reaction, trypsin coupled assay with Ac-SucLys-AMC. The conditions noted are these: succinyl substrate. Type of test: biochemical. On the procedure: (§1) The sirtuin catalyzed deacetylase and desuccinylase reactions were measured via the trypsin coupled assay system as described by Madsen et al. The enzyme reactions were carried out at 25°C in 50 mM Tris-HCl assay buffer, pH 8.0, containing 137 mM NaCl, 2.7 mM KCl, 1 mM MgCl2, and 1 mg/mL bovine serum albumin. Since trypsin was used as a coupling enzyme, its concentration was optimized to ensure the emergence of minimal or negligible lag-phase prior to the onset of the steady state phase. The bi-substrate kinetic experiments were performed by varying the concentrations of NAD^+ (from 100 to 500 μM) and Ac-SucLys-AMC or Fluor-de-lys® substrates (from 100 μM to 1200 μM) using 0.8 μM trypsin as the coupling enzyme. The steady state rates of the enzyme catalyzed reactions were derived from the time dependent changes in the fluorescence signal, and the data were analyzed by the ternary complex kinetic mechanism (Eq 4) via Grafit 4 software.

Test [3] concerns the target T2, SIRT5 wild type (Homo sapiens, UniProt Q9NXA8).
T2 construct: SIRT1 (193–747) and SIRT5 (51–301) were cloned into the pLIC-His expression vector; His tag (pLIC-His vector); made in house; host or cells: E. coli BL21(DE3) Star
T2 sequence (Q9NXA8 51-301): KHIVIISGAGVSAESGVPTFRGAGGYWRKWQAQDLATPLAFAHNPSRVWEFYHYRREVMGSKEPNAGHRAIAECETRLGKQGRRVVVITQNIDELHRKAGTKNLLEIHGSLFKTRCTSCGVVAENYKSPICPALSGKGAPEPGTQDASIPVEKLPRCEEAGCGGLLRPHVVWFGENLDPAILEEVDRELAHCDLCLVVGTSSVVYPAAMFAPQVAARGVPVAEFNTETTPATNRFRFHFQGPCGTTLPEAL
Kind of test: SIRT5 wild type desuccinylation reaction, trypsin coupled fluorescence assay with Ac-SucLys-AMC. Type of test: biochemical. The conditions noted are these: for IC50: SIRT5 desuccinylation. On the procedure: (§2) The sirtuin catalyzed deacetylase and desuccinylase reactions were measured via the trypsin coupled assay system as described by Madsen et al. […] Since trypsin was used as a coupling enzyme, its concentration was optimized to ensure the emergence of minimal or negligible lag-phase prior to the onset of the steady state phase. […] The steady state rates of the enzyme catalyzed reactions were derived from the time dependent changes in the fluorescence signal, and the data were analyzed by the ternary complex kinetic mechanism (Eq 4) via Grafit 4 software.
(§3) The steady-state kinetic data were fitted globally by the competitive, mixed, and noncompetitive inhibition models using the DYNAFIT software based on the rapid-equilibrium approximation. All the parameters were allowed to float except for the enzyme concentration. The software utilizes several model-discrimination criteria, including the second order Akaike Information Criterion (AIC), so that the best model out of the three different candidates could be identified.
(§4) Other reaction conditions were the same as described above. The data were fitted by Eq 5 by Grafit 4.0.

Test [4] addresses T3, SIRT5 Y102A (Homo sapiens, UniProt Q9NXA8, Y102A).
T3 construct: SIRT1 (193–747) and SIRT5 (51–301) were cloned into the pLIC-His expression vector; His tag (pLIC-His vector); made in house; host or cells: E. coli BL21(DE3) Star
T3 sequence (Q9NXA8 51-301 Y102A): T2 sequence (Q9NXA8 51-301) with Y52A
Description: SIRT5 Y102A desuccinylation reaction, trypsin coupled assay with Ac-SucLys-AMC. The test is classed as biochemical. On the procedure: as §2, §3, §4

Test [5] addresses T1, SIRT1. Description: SIRT1 deacetylation reaction, trypsin coupled assay with Fluor-de-lys. The test is classed as biochemical. The conditions noted are these: for IC50: SIRT1 deacetylation. On the procedure:
as §2, §3, §4

Test [6] addresses T3, SIRT5 Y102A. Description: SIRT5 Y102A deacetylation reaction, trypsin coupled assay with Fluor-de-lys. Type of test: biochemical. On the procedure: as §2, §3, §4
Test [7] addresses T4, SIRT5-substrate complex (Homo sapiens, UniProt Q9NXA8).
T4 construct: SIRT1 (193–747) and SIRT5 (51–301) were cloned into the pLIC-His expression vector; His tag (pLIC-His vector); made in house; host or cells: E. coli BL21(DE3) Star
T4 sequence (Q9NXA8 51-301): T2 sequence (Q9NXA8 51-301)
Description: Isothermal titration calorimetry, binding of nicotinamide to SIRT5-substrate complex. The conditions noted are these: ITC, 20 μM SIRT5 in the presence of 1 mM Ac-Suclys-AMC. On the procedure: (§5) Isothermal titration calorimetric experiment was performed in duplicates on a VP-ITC device (Microcal Inc., Northampton, MA). Prior to the titration experiment, both enzyme and inhibitor were thoroughly degassed under vacuum. […] The data were analyzed by the ITC data analysis module of Origin Software using the single-site binding model as described by Wiseman et al. All the parameters were allowed to vary during the curve-fitting. […] The binding free energy (ΔG°) and the entropic (ΔS°) changes were calculated by Eqs 6 and 7, respectively ΔG°=−RTlnKa (6) ΔS°=ΔH°−ΔG°/T (7)
(TIF) Click here for additional data file.
(In general: Isothermal titration calorimetry measures the heat released or taken up as one component is titrated into another.)

Test [8] addresses T5, SIRT5 R105I (Homo sapiens, UniProt Q9NXA8, R105I).
T5 construct: SIRT1 (193–747) and SIRT5 (51–301) were cloned into the pLIC-His expression vector; His tag (pLIC-His vector); made in house; host or cells: E. coli BL21(DE3) Star
T5 sequence (Q9NXA8 51-301 R105I): T2 sequence (Q9NXA8 51-301) with R55I
Kind of test: SIRT5 R105I deacetylation reaction, trypsin coupled assay with Fluor-de-lys. Type of test: biochemical. On the procedure: as §2, §3, §4

Test [9] deals with T6, SIRT5 Y102A/R105I (Homo sapiens, UniProt Q9NXA8, R105I/Y102A).
T6 construct: SIRT1 (193–747) and SIRT5 (51–301) were cloned into the pLIC-His expression vector; His tag (pLIC-His vector); made in house; host or cells: E. coli BL21(DE3) Star
T6 sequence (Q9NXA8 51-301 Y102A/R105I): T2 sequence (Q9NXA8 51-301) with Y52A, R55I
Kind of test: SIRT5 Y102A/R105I deacetylation reaction, trypsin coupled assay with Fluor-de-lys. The test is classed as biochemical. On the procedure:
as §2, §3, §4

The target in test [10] is T2, SIRT5 wild type. Kind of test: SIRT5 wild type deacetylation reaction, trypsin coupled fluorescence assay with Fluor-de-lys. Type of test: biochemical. The conditions noted are these: 50 μM EX527; substrate not stated in the sentence (method: 100 μM Fluor-de-lys, 500 μM NAD^+). On the procedure:
as §1
(§6) The steady-state kinetic data were fitted globally by the competitive, mixed, and noncompetitive inhibition models using the DYNAFIT software based on the rapid-equilibrium approximation. All the parameters were allowed to float except for the enzyme concentration. […]

For test [11], the target named is T5, SIRT5 R105I. Kind of test: SIRT5 R105I desuccinylation reaction, trypsin coupled assay with Ac-SucLys-AMC. Type of test: biochemical. On the procedure:
as §1, §6

Test [12] addresses T7, wild type SIRT5 (Homo sapiens, UniProt Q9NXA8).
T7 construct: SIRT1 (193–747) and SIRT5 (51–301) were cloned into the pLIC-His expression vector; His tag (pLIC-His vector); made in house; host or cells: E. coli BL21(DE3) Star
T7 sequence (Q9NXA8 51-301): T2 sequence (Q9NXA8 51-301)
Description: Isothermal titration calorimetry, binding of EX527 to wild type SIRT5. The conditions noted are these: ITC, either in the absence or the presence of NAD^+ (10 mM).

Test [13] concerns the target T6, SIRT5 Y102A/R105I. Kind of test: Isothermal titration calorimetry, binding of EX527 to SIRT5 Y102A/R105I. The conditions noted are these: ITC. On the procedure:
as §5, with “vacuum. The sample cell was filled with 1.8 mL (effective volume = 1.4 mL) of 20 μM Y102A/R105I mutant SIRT5 and 0 or 10 mM NAD^+ in 50 mM HEPES buffer, pH 7.5, containing 100 mM NaCl, 10% glycerol and 1 mM TCEP.” for “vacuum.”
The latter value translates to the ΔG° of binding as being equal to −7.3 ± 0.1 kcal/mol. Given the ΔH° and ΔG° values, the TΔS° was calculated to be 2.03 kcal/mol.

The mark [14] stands for this setting: desuccinylation, succinyl substrate.
[15] abbreviates: deacetylation, acetylated substrate, at 800 μM nicotinamide.
[16] abbreviates: deacetylation, against NAD^+, 100 μM Fluo-de-lys, NAD^+ 40 to 300 μM.
Setting [17] is: deacetylation, against NAD^+, 500 μM Fluo-de-lys, NAD^+ 200 to 1300 μM.

Turning to `NC(=O)c1ccc[n+]([C@@H]2O[C@H](COP(=O)([O-])OP(=O)(O)OC[C@H]3O[C@@H](n4cnc5c(N)ncnc54)[C@H](O)[C@@H]3O)[C@@H](O)[C@H]2O)c1` [NAD, nicotinamide adenine dinucleotide], the Km in [1] is 150 ± 45 µM.
Regarding `CC(=O)N[C@@H](CCCCNC(=O)CCC(=O)O)C(=O)Nc1ccc2c(C)cc(=O)oc2c1` [Ac-SucLys-AMC], the desuccinylase activity result in test [2] is listed as “no detectable desuccinylase activity”. Further, the results for the kcat in test [3] (setting [14]) and in test [4] (setting [14]) were 383.2 ± 38.3 ×10^−5 s^-1 and 27.4 ± 4.9 ×10^−5 s^-1, respectively. Also, the Km in test [3] (desuccinylation, succinyl substrate, 25°C, pH 8.0, read-out: Km,sub) turned out to be 290 ± 29 µM; in test [4] (desuccinylation, succinyl substrate, read-out: Km,sub), 300 ± 54 µM.
For the compound `NC(=O)c1ccncc1` [isonicotinamide], the IC50 in test [3] (in the presence of 50 μM NAD^+) was 11.1 ± 2.2 mM; in test [3] (in the presence of 5 mM NAD^+), 17.1 ± 4 mM; in test [5] (in the presence of 50 μM NAD^+), 7 ± 2.9 mM; in test [5] (in the presence of 5 mM NAD^+), 8.9 ± 3.3 mM.
For `NC(=O)c1cccnc1` [Nicotinamide], the “% inhibition” value in test [6] (setting [15]) is reported as “N/A, 36% inhibition at 800μM”. Moreover, the inhibition at 800 µM in [6] (setting [15]) is approximately 36%; in test [8] it was 40%. Further, the Ka result in [7] is listed as “(2.5 ± 0.3) × 10^4 M^-1”. Moreover, the “Inhibition Mode” value is reported as “Competitive” in test [3] (desuccinylation, against NAD^+, 100 μM Ac-SucLys-AMC, NAD^+ 40 to 300 μM); “Mixed” in [5] (setting [16]); “Mixed” in [9] (setting [17]); “Competitive” in test [4] (desuccinylation, against NAD^+, 500 μM Ac-SucLys-AMC, NAD^+ 70 to 800 μM). Also, the “Ki’ (mixed inhibition)” value in test [5] (setting [16]) is 0.3405 ± 0.1024 mM; in test [9] (setting [17]), 0.2672 ± 0.0524 mM.
Consider `NC(=O)C1CCCc2c1[nH]c1ccc(Cl)cc21` (centres unmarked) [EX527, 6-chloro-2,3,4,9-tetrahydro-1H-carbazole-1-carboxamide], for which the results for the inhibition at 50 µM in test [6], in [8] and in [11] were approximately 14%, approximately 22% and approximately 22%, respectively. The “inhibition by EX527” value is given as “not inhibited” in test [10] and “no inhibition” in test [4] (50 μM EX527, succinylated substrate). In test [12], the “binding (heat signals)” value is “only miniscule heat signals”. The binding entry in [13] (in the absence of NAD^+) is “binds weakly”. Besides, the “ΔH°” value in test [13] (presence of 10 mM NAD^+, pH 7.5, 25°C) is -5.3 ± 0.1 kcal/mol. Moreover, the stoichiometry n in test [13] (presence of 10 mM NAD^+, pH 7.5, 25°C, single site binding model) is 1.2. In addition, in test [13] (presence of 10 mM NAD^+, calculated from Ka), the “ΔG° of binding” value was -7.3 ± 0.1 kcal/mol. Further, the “TΔS°” value in test [13] (presence of 10 mM NAD^+, calculated from ΔH° and ΔG°) was 2.03 kcal/mol. In test [9], this compound came in with an IC50 of 0.0217 ± 0.001 mM.
